Data as given in US11357851B2, “Uses of myostatin antagonists, combinations containing them and uses thereof” (Novartis AG, priority 2015, dated 2022).

Key:
[1] = tested on: CT-26 mouse colon cancer-induced cachexia; assay: Time-to-progression study in CT-26 mouse colon cancer cachexia; type: in vivo; conditions: for time-to-progression (days until body weight loss 20% or tumor volume 1,500 mm^3): cisplatin combination study, CDD866 once weekly; for time-to-progression (median days elapsed until an interruption criterion): everolimus combination study, after randomization and treatment start, CDD866 twice weekly
Procedure: Time-to-progression study was performed as a follow-up to assess if the combination of CDD866 and cisplatin or everolimus slows progression of cancer cachexia to the interruption criteria which was defined by body weight loss reaching to 20% or tumor volume exceeding 1,500 mm^3. The treatment regimen was the same as used in the therapeutic intervention study. Body weight and tumor volume were measured 2 to 3 times per week in the first 2 weeks and then every day until the end of experiment. The mice were euthanized with CO2, when body weight loss was close to 20% or tumor volume exceeded 1,500 mm^3.
(§1) Values are expressed as mean±SEM. Statistical analysis was carried out using Sidak's multiple comparison test following analysis of variance to compare the treatment groups to the control groups (non-tumor and tumor-bearing), anti-cancer agent alone (cisplatin or everolimus) or CDD866 alone in the therapeutic intervention study, and Dunn's multiple comparisons test for time-to-progression study. Differences were considered to be significant when the probability value was <0.05. Statistical analyses were performed by GraphPad Prism (GraphPad Software, Inc., La Jolla, Calif., USA). Body weight was expressed as % change from day 0 as the start of treatment. Tumor volumes in cubic mm were calculated according to the formula (length×width^2)/2. Muscle weight was normalized to the body weight on the day of cell inoculation (initial body weight) and then expressed as % change from the non-tumor control group.
Extensive tumor growth and subsequent body weight loss are important predictors of mortality in cancer patients. We therefore wanted to evaluate whether the combination of CDD866 and cisplatin has an impact on the length of survival. For ethical reason we abstained from classical survival studies. Instead, each mouse was individually euthanized when experiencing either a body weight loss exceeding 20% of initial body weight, or reaching a tumor volume of 1,500 mm^3, determined as time-to-progression.

[2] = tested on: CT-26 mouse colon cancer-induced cachexia; assay: Therapeutic intervention study in CT-26 mouse colon cancer-induced cachexia (tumor-bearing mice); type: in vivo; conditions: for body weight loss (of initial body weight): tumor-bearing animals, ten days after starting treatment, CDD866 20 mg/kg s.c. once weekly, cisplatin 1 mg/kg i.p. twice a week; for CT-26-induced loss in body weight: day 14, CDD866 twice weekly; for CT-26-induced muscle weight loss: tibialis anterior, gastrocnemius-soleus-plantaris complex, quadriceps
Procedure: (§2) Adult male Balb/cJRj mice at the age of 11 to 12 weeks were purchased from Janvier Laboratories (Le Genest St Isle, France). Mice were acclimated to the facility for 7 days. Animals were housed in groups of 5 or less animals at 25° C. with a 12:12 h light-dark cycle. They were fed a standard laboratory diet containing 18.2% protein and 3.0% fat with an energy content of 15.8 MJ/kg (NAFAG 3890, Kliba, Basel, Switzerland). Food and water were provided ad libitum.
(§3) Mouse colon cancer cell line CT-26 was cultured in RPMI 1640 medium supplemented with 10% heat inactivated fetal bovine serum and antibiotic-antimycotic solution at 37° C. with 5% CO2. CT-26 cells were harvested by treatment with Accutase® (PAA Laboratories GmbH, Pasching, Austria) and suspended in a solution containing 50% PBS and 50% BD Matrigel™ Matrix without phenol red (catalog number 356237, BD Biosciences, Bedford, Mass., USA). A 0.1 mL of cell suspension containing 3×10^5 cells was inoculated subcutaneously into the left flank of mice. When tumors were palpable, mice bearing tumors with acceptable morphology and size were randomized to produce groups balanced with respect to mean and range of tumor sizes and body weight. Treatments were initiated on the day of randomization. Therapeutic intervention study was conducted to evaluate the effect of CDD866, either alone or in combination with anti-cancer agents. CDD866 was administered at 20 mg/kg s.c., once or twice weekly in a volume of 5 mL/kg. Cisplatin was administered at 1 mg/kg i.p. twice a week. Everolimus was administered at 5 mg/kg p.o. once daily. In the combination groups, cisplatin or everolimus treatment was combined with once or twice weekly subcutaneous treatment of CDD866, respectively. Body weight and tumor volume were measured 2 to 3 times per week. At the end of the experiment, the mice were euthanized with CO2, and tumor, tibialis anterior, gastrocnemius-soleus-plantaris complex, quadriceps were collected and weighed.
as §1

non-tumor bearing mice = assay: Therapeutic intervention study, non-tumor bearing (healthy control) mice; type: in vivo, mouse; conditions: for body weight in healthy control animals: cisplatin study, non-tumor mice; for weight of tibialis anterior, gastrocnemius-soleus-plantaris complex and quadriceps muscles in non-tumor bearing group / body weight gain in non-tumor bearing group: everolimus study; for body weight gain in non-tumor bearing group: up to day 14, CDD866 20 mg/kg s.c. twice weekly, everolimus 5 mg/kg p.o. once daily
Procedure: as §2, §3, §1

[3] = cisplatin study, CT-26 tumor-bearing mice
[4] = cisplatin study, CT-26 tumor-bearing mice, normalized to initial body weight, versus non-tumor control

Compound	time-to-progression (days until body weight loss 20% or tumor volume 1,500 mm^3) [1] [days]	time-to-progression (median days elapsed until an interruption criterion) [1] [days]	tumor progression / CT-26 tumor volume and weight [2, 3]	gastrocnemius muscle weight loss [2, 4] [%]	body weight loss (of initial body weight) ([2]; cisplatin study) [%]	CT-26 tumor weight ([2]; everolimus study)	CT-26-induced loss in body weight ([2]; everolimus study)	CT-26-induced muscle weight loss ([2]; everolimus study)	body weight in healthy control animals (non-tumor bearing mice)	weight of tibialis anterior, gastrocnemius-soleus-plantaris complex and quadriceps muscles in non-tumor bearing group (non-tumor bearing mice)	body weight gain in non-tumor bearing group (non-tumor bearing mice)	CT-26 tumor growth ([2]; everolimus study)	tibialis anterior muscle wasting (muscle loss) [2, 4] [%]
CDD866: murinized version of bimagrumab, where the human Fc region of the antibody has been replaced by a mouse Fc	16	21	neither accelerated tumor progression	13	3	no significant effect	completely prevented	significantly reduced	marked body weight gain	significantly increased	increased significantly		
CO[C@H]1C[C@@H]2CC[C@@H](C)[C@@](O)(O2)C(=O)C(=O)N2CCCC[C@H]2C(=O)O[C@H]([C@H](C)C[C@@H]2CC[C@@H](OCCO)[C@H](OC)C2)CC(=O)[C@H](C)/C=C(\C)[C@@H](O)[C@@H](OC)C(=O)[C@H](C)C[C@H](C)/C=C/C=C/C=C/1C [everolimus, (1R,9S,12S,15R,16E,18R,19R,21R,23S,24E,26E,28E,30S,32S,35R)-1,18-d ihydroxy-12-{(1 R)-2-[(1S,3R,4R)-4-(2-hydroxyethoxy)-3-methoxycyclohexyl]-1-methylethyl}-19,30-dimethoxy-15,17,21,23,29,35-hexamethyl-11,36-dioxa-4-aza-tricyclo[30.3.1.04,9]hexatriaconta-16,24,26,28-tetraene-2,3,10,14,20-pentaone]		23				significantly reduced	completely prevented	significantly reduced		not affected	not affected significantly	slowed CT-26 tumor growth	
N.N.[Cl][Pt][Cl] [cisplatin, cis-diamminedichloro-platinum(II)]	12		reduced CT-26 tumor weight to similar levels	25	20				did not affect body weight				34
